Results published in ChEMBL document CHEMBL1141635, “Novel GSK-3beta inhibitors from sequential virtual screening” (Bioorg Med Chem, 2008).

Target: Glycogen synthase kinase-3 beta (Homo sapiens) (UniProt P49841)
Test: Inhibition of human GSK3-beta assessed as remaining enzyme activity at 10 uM

Chain of Glycogen synthase kinase-3 beta (Homo sapiens) (P49841 whole entry, looked up): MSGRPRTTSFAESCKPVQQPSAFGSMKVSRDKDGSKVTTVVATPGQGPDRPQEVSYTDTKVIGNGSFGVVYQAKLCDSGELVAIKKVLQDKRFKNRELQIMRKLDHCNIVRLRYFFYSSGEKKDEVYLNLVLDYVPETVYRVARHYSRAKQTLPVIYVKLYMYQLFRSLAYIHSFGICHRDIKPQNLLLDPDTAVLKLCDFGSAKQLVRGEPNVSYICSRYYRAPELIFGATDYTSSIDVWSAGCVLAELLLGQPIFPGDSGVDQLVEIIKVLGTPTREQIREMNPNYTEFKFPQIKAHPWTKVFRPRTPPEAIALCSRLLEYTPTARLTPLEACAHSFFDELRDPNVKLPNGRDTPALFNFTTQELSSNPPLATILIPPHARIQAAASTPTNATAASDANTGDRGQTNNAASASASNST

| SMILES | Activity [%] |
| --- | --- |
| CCOc1cc(C=C2C(=O)NC(=S)NC2=O)cc(I)c1OC | 58 |
| COc1cc(/C=C2\SC(=S)NC2=O)cc(Br)c1OCc1ccccc1C | 6 |
| COc1ccc2c(c1)/C(=C1/SC(=S)NC1=O)C(=O)N2 | 84 |
| COc1ccc(-c2ccc(/C=C3\SC(=S)NC3=O)o2)c([N+](=O)[O-])c1 | 5 |
| O=C1NC(=S)S/C1=C\c1ccccc1OS(=O)(=O)c1ccccc1[N+](=O)[O-] | 14 |
| CCCNc1nc2ccccn2c(=O)c1/C=C1\SC(=S)NC1=O | 95 |
| CC1=NCCNC2=C1[C@H](c1ccc(F)cc1)N(c1ccccn1)C2=O | 99 |
| O=C1NC(=O)/C(=C/c2ccc(-c3cc([N+](=O)[O-])ccc3Cl)o2)S1 | 8 |
| O=C1CC(C(F)(F)F)=NC(Sc2c(-c3ccccc3)c3cc([N+](=O)[O-])ccc3[nH]c2=O)=N1 | 41 |
| Cc1ccc(/N=C2/NC(=O)S/C2=C\c2ccccc2Cl)cc1 | 18 |
| Cc1ccc(S(=O)(=O)n2cc(/C=C3\SC(=S)NC3=O)c3ccccc32)cc1 | 67 |
| Cc1cc(/C=C2\SC(=S)NC2=O)c(C)n1-c1cccc([N+](=O)[O-])c1 | 41 |
| O=C1NC(=S)S/C1=C\c1ccc(O)c([N+](=O)[O-])c1 | 7 |
